In US6054137A, “Promoting epidermal renewal with phloroglucinol” (Societe L'Oreal S.A., priority 1997, dated 2000) one finds Proliferative effect data, which are given here for 1 molecule.

The test system of the assay is normal human keratinocytes. Put plainly: Proliferation of normal human keratinocytes cultured as a monolayer (BrdU test; score versus epinephrine). The note with it: at 10^-5 M; keratinocyte monolayer; 72 h. In kind it is cell-based. The method, then:
Study of the effect of 1,3,5-trimethoxybenzene on the proliferation of normal human keratinocytes cultured as a monolayer:
The products are tested on 2nd passage normal human keratinocytes cultured in KGM medium (serum-free defined medium sold by the company Clonetics). The range of concentrations is between 10^-4 M and 10^-7 M. The products are tested twice on 2 different plates.
250 ng/ml epinephrine is employed as positive control of the proliferation.
The products are dissolved in dimethyl sulphoxide (DMSO). A 1×10^-2 M mother solution is prepared in DMSO. The following dilutions are carried out in KGM.
The keratinocytes are seeded at 6000 cells/cm^2. After culturing for 24 h, the product is applied to the cells for 72 h. The medium is replaced after treatment for 48 h.
BrdU kit (Boehringer Mannheim).
On the second day of treatment, a thymidine analogue (BrdU) is added to the culture medium overnight. This analogue makes it possible to label the cells during DNA synthesis. On the third day of treatment, the cells which have incorporated BrdU are identified with an anti-BrdU antibody.
For each product, the score (see table) is attributed as a function of the result obtained with respect to epinephrine (positive control for the proliferation).

SMILES strings stand for the structures.

For the molecule `COc1cc(OC)cc(OC)c1` [1,3,5-Trimethoxybenzene, 1,3,5-trimethoxybenzene], the Proliferative effect entry is given as “induces proliferation of the keratinocytes”.
